# From patent publication US10123994B2, “Heterocyclic derivative having AMPK-activating activity” (SHIONOGI & CO., LTD., priority 2014, dated 2018)
# Target: T1, Human AMPK α2β2γ1 (Homo sapiens, UniProt O43741+P54619+P54646)
# T1 construct: The full length cDNAs of human AMPK β2 (NM_005399.3) and human AMPK α2 (NM_006252.3); The full length cDNAs of human AMPK β2 (NM_005399.3); the full length cDNA of human AMPK γ1 (NM_002733.3); 6xHis (N); made in house; host or cells: Escherichia coli BL21 CodonPlus (DE3)-RIL (AMPK); BL21 Star (DE3) (CaMKK2)
# T1 sequence (P54646 whole entry): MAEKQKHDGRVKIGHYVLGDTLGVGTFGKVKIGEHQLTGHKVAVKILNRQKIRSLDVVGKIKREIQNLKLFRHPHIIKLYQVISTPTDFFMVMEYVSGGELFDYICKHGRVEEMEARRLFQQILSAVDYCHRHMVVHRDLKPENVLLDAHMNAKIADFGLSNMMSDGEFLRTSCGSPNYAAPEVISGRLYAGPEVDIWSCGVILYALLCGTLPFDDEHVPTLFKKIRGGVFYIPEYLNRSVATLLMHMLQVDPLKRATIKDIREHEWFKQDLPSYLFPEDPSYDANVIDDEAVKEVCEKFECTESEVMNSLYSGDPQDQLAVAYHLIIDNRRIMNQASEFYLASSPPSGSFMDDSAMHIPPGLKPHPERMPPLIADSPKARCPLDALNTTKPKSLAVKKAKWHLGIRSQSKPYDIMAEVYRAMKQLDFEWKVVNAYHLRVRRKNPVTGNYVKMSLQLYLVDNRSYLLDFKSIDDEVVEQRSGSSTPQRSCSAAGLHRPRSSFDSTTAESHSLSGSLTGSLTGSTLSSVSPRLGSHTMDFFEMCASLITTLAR
# T1 sequence (O43741 whole entry): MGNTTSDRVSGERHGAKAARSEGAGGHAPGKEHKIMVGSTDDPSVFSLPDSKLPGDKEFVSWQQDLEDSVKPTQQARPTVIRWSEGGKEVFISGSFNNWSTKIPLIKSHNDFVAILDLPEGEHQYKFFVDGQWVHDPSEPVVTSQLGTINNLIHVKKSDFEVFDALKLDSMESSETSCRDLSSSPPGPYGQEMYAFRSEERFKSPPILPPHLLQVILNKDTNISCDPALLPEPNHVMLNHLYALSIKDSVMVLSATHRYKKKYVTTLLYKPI
# T1 sequence (P54619 whole entry): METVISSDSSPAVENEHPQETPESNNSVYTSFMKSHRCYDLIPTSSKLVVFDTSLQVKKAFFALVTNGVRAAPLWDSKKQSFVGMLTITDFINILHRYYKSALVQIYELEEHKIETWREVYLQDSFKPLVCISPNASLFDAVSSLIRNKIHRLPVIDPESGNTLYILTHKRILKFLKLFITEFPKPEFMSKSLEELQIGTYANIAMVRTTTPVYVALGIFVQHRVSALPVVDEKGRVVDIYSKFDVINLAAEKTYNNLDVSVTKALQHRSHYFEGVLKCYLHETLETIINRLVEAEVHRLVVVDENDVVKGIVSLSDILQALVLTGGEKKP
# Experiment: Test Example 2: AMPK activator evaluation, mobility-shift kinase assay after CaMKK2 phosphorylation
# Format: biochemical
# Details: for EC150: compound concentration showing 150% relative to the control (100%); for Emax: maximum rate of increase in activity within the measurement range, control = 100%
# Protocol: The full length cDNAs of human AMPK β2 (NM_005399.3) and human AMPK α2 (NM_006252.3) were inserted into the MCS1 and MCS2 of the pETDuet-1 vector to prepare a human AMPK β2 and human AMPK α2 (6× His tag at the 5′ terminus) expressing plasmid. The plasmid was cotransfected with an expression plasmid, in which the full length cDNA of human AMPK γ1 (NM_002733.3) had been inserted into pET28b(+), into BL21 CodonPlus (DE3)-RIL to obtain an expression strain. The expression strain was cultured in TB medium, followed by induction with 0.5 mM IPTG, and cultured at 25° C. for 3 hours and then harvested. After ultrasonication, supernatant was collected and applied to Histrap FF column (GE) and RESOUECE Q column (GE) to prepare 12.5 mg of purified sample containing three types of subunit from 1.8 L of broth.
# An expression vector, in which the full length cDNA of human CAMKK β (NM_172226.1) had been inserted into pGEX-6P-3, was transfected into BL21 Star (DE3). The expression strain was cultured in TB medium, followed by induction with 0.5 mM IPTG, and cultured at 25° C. for 3 hours and then harvested. After ultrasonication, supernatant was collected and applied to GSTrap FF column (GE) to prepare 14 mg of GST-fused CAMKK β from 720 ml of broth.
# Thus, phosphorylation treatment was carried out as pretreatment.
# Human AMPK α2β2γ1 in an amount to give a conversion rate of approximately 10% by reaction for 2 hours, and CaMKK2 in an amount capable of sufficiently imparting activity to AMPK for one hour were mixed in a buffer solution consisting of a 50 mM HEPES-NaOH buffer solution (pH 7.0), 100 mM NaCl, 5 mM magnesium chloride, 0.1% bovine serum albumin, 0.2 mM sodium orthovanadate(V), 1 mM ethylene glycol-bis(2-aminoethyl ether)-N,N,N′,N′-tetraacetic acid (EGTA), 5 mM disodium β-glycerophosphate, 1 mM dithiothreitol and 0.2 mM ATP, and the obtained liquid was left to stand at 25° C. for 1 to 1.5 hours to sufficiently phosphorylate AMPK.
# After that, to the enzyme liquid, which had been subjected to phosphorylation treatment, a compound dissolved in DMSO was added so as to have a 1% DMSO concentration. The obtained liquid was left to stand for 10 minutes.
# To the liquid, a substrate solution consisting of a 50 mM HEPES-NaOH buffer solution (pH 7.0), 100 mM NaCl, 10 mM magnesium chloride, 0.1% bovine serum albumin, 0.2 mM sodium orthovanadate(V), 1 mM ethylene glycol-bis(2-aminoethyl ether)-N,N,N′,N′-tetraacetic acid (EGTA), 5 mM disodium β-glycerophosphate, 2 mM dithiothreitol, 0.4 mM ATP and 3 μM FL-Peptide 7 (manufactured by Caliper Life Sciences, Inc.) was added in equal amount (10 μl in total). The obtained liquid was allowed to react at 25° C. for 2 hours, and 10 μl of 20 mM EDTA was then added thereto to stop the reaction.
# To detect phosphorylated fluorescent substrates, the reaction liquid was applied to a measuring device, LabChip EZ Reader II manufactured by Caliper Life Science, Inc., for detecting fluorescence by using differences in mobility due to differences in charge. The setting conditions for the device were pressure, −1.5 PSI; upstream voltage, −2250 V; downstream voltage, −400 V; post sample buffer sip time, 40 seconds; final delay, 120 seconds; and peak order, Product First.
# A conversion rate was calculated from the peak heights of the resulting substrate and product. The conversion rate when not containing a compound was used as a control, and a concentration dependent curve was made by plotting the rate of increase in activity to the control at each concentration of a compound.
SMILES,EC150,Emax
O[C@@H]1CO[C@H]2[C@@H]1OC[C@H]2Oc1nc2nc(NCc3c(F)cccc3F)c(Cl)cc2[nH]1 [Compound I-1-1],29 nM,484%
COCCOc1cc(F)c(CSc2nc3nc(O[C@@H]4CO[C@H]5[C@@H]4OC[C@H]5O)[nH]c3cc2Cl)c(F)c1 [Compound I-1-4],40 nM,766%
Cc1cccc(F)c1CNc1nc2nc(O[C@@H]3CO[C@H]4[C@@H]3OC[C@H]4O)[nH]c2cc1Cl [Compound I-1-6],21 nM,496%
O[C@@H]1CO[C@H]2[C@@H]1OC[C@H]2Oc1nc2nc(NC3CCc4ccccc43)c(Cl)cc2[nH]1 (stereo partly drawn) [Compound I-1-8],67 nM,617%
O[C@@H]1CO[C@H]2[C@@H]1OC[C@H]2Oc1nc2nc(NCc3c(F)cccc3F)c(F)cc2[nH]1 [Compound I-1-10],740 nM,406%
O[C@@H]1CO[C@H]2[C@@H]1OC[C@H]2Oc1nc2nc(NC3COc4ccccc43)c(Cl)cc2[nH]1 (stereo partly drawn) [Compound I-1-11],170 nM,512%
COCCOc1cc(F)c(CNc2nc3nc(O[C@@H]4CO[C@H]5[C@@H]4OC[C@H]5O)[nH]c3cc2Cl)c(F)c1 [Compound I-1-13],17 nM,838%
O[C@@H]1CO[C@H]2[C@@H]1OC[C@H]2Oc1nc2nc(NCc3c(F)cc(Cl)cc3F)c(Cl)cc2[nH]1 [Compound I-1-14],42 nM,750%
OCCOc1cc(F)c(CNc2nc3nc(O[C@@H]4CO[C@H]5[C@@H]4OC[C@H]5O)[nH]c3cc2Cl)c(F)c1 [Compound I-1-15],5.8 nM,894%
OCCCOc1cc(F)c(CNc2nc3nc(O[C@@H]4CO[C@H]5[C@@H]4OC[C@H]5O)[nH]c3cc2Cl)c(F)c1 [Compound I-1-36],16 nM,475%
COCCOc1cc(F)c2c(c1)CCC2Nc1nc2nc(O[C@@H]3CO[C@H]4[C@@H]3OC[C@H]4O)[nH]c2cc1Cl (stereo partly drawn) [Compound I-1-38],1.2 nM,568%
Cn1cc(-c2cc(F)c(CNc3nc4nc(O[C@@H]5CO[C@H]6[C@@H]5OC[C@H]6O)[nH]c4cc3Cl)c(F)c2)cn1 [Compound I-1-39],26 nM,506%
O[C@@H]1CO[C@H]2[C@@H]1OC[C@H]2Oc1nc2nc(NCc3cccs3)c(Cl)cc2[nH]1 [Compound I-1-52],100 nM,407%
O=C(Nc1nc2nc(O[C@@H]3CO[C@H]4[C@@H]3OC[C@H]4O)[nH]c2cc1Cl)c1ccc2ccccc2c1 [Compound I-1-80],880 nM,397%
O[C@@H]1CO[C@H]2[C@@H]1OC[C@H]2Oc1nc2nc(NCc3ccccc3F)c(Cl)cc2[nH]1 [Compound I-1-109],48 nM,499%
O[C@@H]1CO[C@H]2[C@@H]1OC[C@H]2Oc1nc2nc(NC3CCc4cccnc43)c(Cl)cc2[nH]1 (stereo partly drawn) [Compound I-1-116],94 nM,450%
OCCO[C@@H]1CO[C@H]2[C@@H]1OC[C@H]2Oc1nc2nc(NCc3c(F)cccc3F)c(Cl)cc2[nH]1 [Compound I-1-119],84 nM,432%
CC(=O)NC(C)(C)c1ccc(Oc2nc3nc(NCc4c(F)cccc4F)c(Cl)cc3[nH]2)cn1 [Compound I-1-126],170 nM,332%

SMILES,EC150,Emax
Oc1cccc(F)c1CNc1nc2nc(O[C@@H]3CO[C@H]4[C@@H]3OC[C@H]4O)[nH]c2cc1Cl [Compound I-2-1],30 nM,588%
OC[C@@H]1C[C@H](Oc2nc3nc(NCc4c(F)cccc4F)c(Cl)cc3[nH]2)CO1 [Compound I-2-19],74 nM,506%
O[C@@H]1CO[C@H]2[C@@H]1OC[C@H]2Oc1nc2nc(NCc3c(F)cccc3F)c(C(F)(F)F)cc2[nH]1 [Compound I-2-22],130 nM,480%
OCCn1ccc(CNc2nc3nc(O[C@@H]4CO[C@H]5[C@@H]4OC[C@H]5O)[nH]c3cc2Cl)n1 [Compound I-2-62],94 nM,388%
CCc1ccc(CNc2nc3nc(O[C@@H]4CO[C@H]5[C@@H]4OC[C@H]5O)[nH]c3cc2Cl)s1 [Compound I-2-75],26 nM,542%
CS(=O)(=O)CCCOc1cc(F)c(CNc2nc3nc(O[C@@H]4CO[C@H]5[C@@H]4OC[C@H]5O)[nH]c3cc2Cl)c(F)c1 [Compound I-2-91],5.4 nM,532%
CS(=O)(=O)NCCOc1cc(F)c(CNc2nc3nc(O[C@@H]4CO[C@H]5[C@@H]4OC[C@H]5O)[nH]c3cc2Cl)c(F)c1 [Compound I-2-93],9.9 nM,602%
O[C@@H]1CO[C@H]2[C@@H]1OC[C@H]2Oc1nc2nc(NCc3c(F)cc(OCC4CNCCO4)cc3F)c(Cl)cc2[nH]1 (stereo partly drawn) [Compound I-2-119],13 nM,581%
O=C(c1cc(F)c2c(c1)CCC2Nc1nc2nc(O[C@@H]3CO[C@H]4[C@@H]3OC[C@H]4O)[nH]c2cc1Cl)N1CCCCC1 (stereo partly drawn) [Compound I-2-147],4.5 nM,532%
O=C(c1cc(F)c2c(c1)CCC2Nc1nc2nc(O[C@@H]3CO[C@H]4[C@@H]3OC[C@H]4O)[nH]c2cc1Cl)N1CC[C@H](F)C1 (stereo partly drawn) [Compound I-2-153],5.2 nM,546%
COCCOc1cc(F)c2c(c1)OCC2Nc1nc2nc(O[C@@H]3CO[C@H]4[C@@H]3OC[C@H]4O)[nH]c2cc1Cl (stereo partly drawn) [Compound I-2-185],6 nM,569%
O=C1CCCN1CCOc1cc(F)c(CNc2nc3nc(O[C@@H]4CO[C@H]5[C@@H]4OC[C@H]5O)[nH]c3cc2Cl)c(F)c1 [Compound I-2-188],15 nM,603%
CN1CCC(Oc2cc(F)c(CNc3nc4nc(O[C@@H]5CO[C@H]6[C@@H]5OC[C@H]6O)[nH]c4cc3Cl)c(F)c2)CC1 [Compound I-2-192],7.6 nM,568%
O[C@@H]1CO[C@H]2[C@@H]1OC[C@H]2Oc1nc2nc(NCc3c(F)cc(C4=CCNCC4)cc3F)c(Cl)cc2[nH]1 [Compound I-2-209],22 nM,558%
Cn1cc(-c2cc(F)c(CNc3nc4nc(O[C@@H]5CO[C@H]6[C@@H]5OC[C@H]6O)[nH]c4cc3Cl)c(F)c2)ccc1=O [Compound I-2-217],47 nM,637%
COCCOc1cc(F)c2c(c1)CC[C@@H]2Nc1nc2nc(O[C@@H]3CO[C@H]4[C@@H]3OC[C@H]4O)[nH]c2cc1Cl [Compound I-2-220],1.1 nM,669%
CN(C)CCCc1cc(F)c(CNc2nc3nc(O[C@@H]4CO[C@H]5[C@@H]4OC[C@H]5O)[nH]c3cc2Cl)c(F)c1 [Compound I-2-222],16 nM,532%
CCOCCOc1cc(F)c2c(c1)CCC2Nc1nc2nc(O[C@@H]3CO[C@H]4[C@@H]3OC[C@H]4O)[nH]c2cc1Cl (stereo partly drawn) [Compound I-2-223],2.8 nM,649%
